According to patent US20080082038A1, “Medical Device including a Bioactive in a Non-ionic and an Ionic Form and Methods of Preparation Thereof” (Vance Products Incorporated, d/b/a/ Cook Urological …, priority 2006, published 2008):
Counter-ions that a name gives are not always drawn. Like-named read-outs stand apart in the source and are kept apart here.

Legend:
[1] = Solubility of bupivacaine free-base and salt in water and ethanol; assay type: physicochemical
Procedure: In water, the free-base (unionized form) of bupivacaine is much less soluble in water than the salt form (bupivacaine-HCl). A water suspension of free-base in water has a pH of 7.85. […] By lowering the pH, the ratio of protonated bupivacaine (ionized) to unprotonated bupivacaine (unionized) increases.
(§1) Stents, prepared as described in Example 1, are imbibed in 5% bupivacaine-HCl in water/ethanol for 20 minutes at 45° C.

[2] = Elution of deposited drug from imbibed stents in buffered saline solution (HPLC); assay type: physicochemical; details: for rate of elution of drug from imbibed polyurethane stent: polyurethane stent imbibed with the named form
Procedure: as §1
The amount of drug deposited on the stent is determined by high performance liquid chromatography (HPLC). The rate of bupivacaine dissolution is determined by measuring the elution profiles using HPLC.
The solubility and thus the ratio of bupivacaine to bupivacaine-HCl was determined by the elution of the deposited drug in buffered saline solution (pH=7.4) mimicking a bodily fluid.

[3] = buffered saline solution pH=7.4

pH of water suspension of free-base ([1]; suspension in water)	solubility ([1]; water, pH 7.85, water, thermodynamic from solid, read-out: solubility) [mg/mL]	elution of the drug on day one and day two, ethanol solution relative to water solution [2, 3]	solubility of the deposited drug, ethanol deposition relative to water deposition [2, 3]	rate of elution of drug from imbibed polyurethane stent ([2]; listed as bupivacaine free-base)	solubility ([1]; aqueous buffer, water, pH between 1.8 and 6, read-out: solubility (dissolved in water)) [mg/mL]	solubility ([1]; ethanol, organic solvent or mixture, read-out: solubility in ethanol) [mg/mL]	solubility ([1]; water, read-out: solubility in water) [mg/mL]	rate of elution of drug from imbibed polyurethane stent [2]	SMILES	solubility in aqueous solution relative to the bupivacaine-salt ([1]; aqueous solution)
7.85	~0.25	approximately six times	close to six times greater	greatly reduced					CCCCN1CCCCC1C(=O)Nc1c(C)cccc1C (stereo not shown) [bupivacaine]	at least two orders of magnitude less soluble
					40 to 50	125	40	can elute more quickly	CCCCN1CCCCC1C(=O)Nc1c(C)cccc1C (stereo not shown) [bupivacaine-HCl]	
